Data published in patent publication US5536848A, “Bioactive acetogenins and derivatives” (Purdue Research Foundation, priority 1994, dated 1996).
Values after ≈ are worked out from the molar mass of the structure shown. “Also recorded” adds a separate entry of the source. Read-outs that look alike come from different tables or passages of the source.

What was measured:
[1] = tested on: A-549 (human lung carcinoma); assay: Seven-day in vitro cytotoxicity, A-549; assay type: cell-based; details: A549, 168 h
Description: (§1) The brine shrimp (Artemia salina Leach) test (BST) was performed as modified to determine LC50 values in μg/ml. Seven-day in vitro cytotoxicity tests against human tumor cell lines were carried out at the Purdue Cancer Center, using standard protocols for A-549 (human lung carcinoma), MCF-7 (human breast carcinoma) and HT-29 (human colon carcinoma) with adriamycin as a positive control. The reported ED50 values in μg/ml (Table 5) were tabulated from the same run in order to facilitate comparison for the SAR's.
(§2) Bioassays. The brine shrimp (Artemia salina Leach) test (BST) was performed as modified. Zhao et al., Phytochemistry, 33, p. 1065 (1993). Seven-day in vitro cytotoxicity tests against human tumor cell lines were carried out at the Purdue Cancer Center, using standard protocols for A-549 (human lung carcinoma), Gu, Z. M.; Fang, X.-P.; Miesbauer, L. R., Smith, D. L.; and McLaughlin, J. L., 30, 31, and 32-Hydroxybullatacinones: Bioactive Terminally-Hydroxylated Annonaceous Acetogenins from Annona bullata., J. Nat. Prod., 1993, 56, 870-876; MCF-7 (human breast carcinoma) McLaughlin, J. L., Chang, C.-J., and Smith, D. L., Simple Bench-Top Bioassays (Brine Shrimp and Potato Discs) for the Discoveries of Plant Antitumor Compounds: A Review of Recent Progress. In Kinghorn, A. D., Balandrin, J. (Eds): "Human Medicinal Agents from Plants", ACS Symposium Series, Washington, D.C., American Chemical Society, 1993, pp. 112-137; and HT-29 (human colon carcinoma), Mclaughlin, J.L., Chang, C.-J., Smith, D.L., "'Bench-Top' Bioassays for the Discovery of Bioactive Natural Products: An Update", in Rahman, Atta-ur- (Ed): "Studies in Natural Product Chemistry", Vol. 9, Amsterdam, Elsevier, 1991, pp. 383-409, with adriamycin as a positive control. The reported values (Table IV) were tabulated from the same run in order to facilitate comparison for the SAR's.
(§3) Bioassay. The extracts, fractions, and isolates were routinely evaluated for lethality to brine shrimp larvae (BST). Cytotoxicities against human solid tumor cells were measured at the Purdue Cell Culture Laboratory, Purdue Cancer Center, for the A-549 lung carcinoma, MCF-7 breast carcinoma, and HT-29 colon adenocarcinoma.
(§4) The brine shrimp lethality test (BST), on newly hatched naupleii, was performed in our laboratory as previously described. McLaughlin, Methods in Plant Biochemistry, Vol. 6, Hostettmann, Academic Press, London, pp. 1-33 (1991). Seven day cytotoxicities against human solid tumor cells were measured at the Cell Culture Laboratory, Purdue Cancer Center, for the A-549 lung carcinoma, MCF-7 breast carcinoma, and HT-29 colon adenocarcinoma. The respiratory functions of rat liver mitochondria (RMB) were measured polarographically by determination of their rates of oxygen consumption after the addition of acetogenins or their derivatives.

[2] = tested on: brine shrimp (Artemia salina Leach); assay: Brine shrimp lethality test (BST); assay type: in vivo; details: for LC50: Artemia salina, read-out: BST LC50
Description: as §1, §2, §3, §4

rat liver mitochondria = assay: Rat mitochondrial bioassay (RMB), inhibition of oxygen uptake; assay type: biochemical; details: for RMB IC50: Table 17, oxygen consumption of rat liver mitochondria, parent and acetal derivative in the same run
Description: as §4
The oxidative phosphorylation pathway (or electron transport chain) is responsible for oxidizing NADH to NAD^+ and producing ATP from ADP and phosphate within the mitochondria. There are five enzyme complexes in this pathway: NADH-ubiquinone reductase (complex I), succinate-ubiquinone reductase (complex II), ubiquinone-cytochrome c reductase (complex III), cytochrome c oxidase (complex IV) and the F0 F1 -ATPase complex (complex V). The end point of the oxidative phosphorylation pathway is the reduction of oxygen (O2) to water in the mitochondria (thus, it is also called respiration), coupled with the synthesis of ATP by complex V. State 4 respiration is the oxidation of substrates in the absence of a phosphate acceptor (e.g., ADP). State 3 respiration occurs when a phosphate acceptor is present and oxygen utilization increases. The ratio of State 3 respiration to State 4 respiration is the respiratory control ratio (RCR).
The process of respiration can be measured by using an oxygen electrode to detect the amount of oxygen present in the assay cell. If respiration is occurring normally, the concentration of oxygen should slowly decrease as it is reduced to water. However, if there is some type of inhibition of oxidative phosphorylation occurring, the oxygen level will no longer decrease at the same rate. This rate of oxygen usage can be visualized by a chart recorder connected to the oxygen electrode. At normal respiration,a decreasing baseline slope will be established. During inhibition, however, the baseline slope should decrease (i.e., the slope will move closer to zero), since the oxygen present is no longer being reduced. In other words, the oxygen concentration in the assay cell is no longer decreasing at the same rate as in normal respiration. Furthermore, inhibition sites at specific complexes can be determined by competitive inhibition studies. This is accomplished by addition of a known inhibitor of, e.g., complex I, followed by the new respiration-inhibiting compound. […] This can be verified by trying inhibitors at other sites and by reversing the order, i.e., adding the new compound and then the known inhibitor.
The method for isolating rat liver mitochondria essentially followed the published methodology. Ahammadsahib et al., Life Sciences, 53, pgs. 1113-1120 (1993). The isolation buffer used for the isolation of mitochondria from rat liver consisted of 4 mM Tris-HC1, 0.5 mM EDTA, and 250 mM sucrose at a pH of 7.4. The isolation buffer was kept at refrigeration temperature at all times by storing on ice during the whole procedure. The rats were supplied by Sprague-Dawley, were male, and weighed approximately 300-320 grams. They were sacrificed with carbon dioxide, and the livers were removed and immediately placed in the isolation buffer on ice. The livers were then rinsed with several washings of cold buffer, cut into pieces, and homogenized. The homogenates were then centrifuged (Sorvall Superspeed RC2-B, 4° C) for 10 minutes at approximately 2000 rpms; the supernatant was next centrifuged for 20 minutes at approximately 9000 rpms. The pellet was reserved and resuspended in 2 ml of assay buffer with a glass pipet. The assay buffer consisted of 100 mM KC1, 5 mM KH2 PO4, 1 mM EDTA, 5 mM glutamate, 1 mM malate, and 20 mM Tris-HCl at a pH of 7.4 and was stored at room temperature. […]

[3] = tested on: MCF-7 (human breast carcinoma); assay: Seven-day in vitro cytotoxicity, MCF-7; assay type: cell-based; details: MCF7, 168 h
Description: as §1, §2, §3, §4

[4] = Table 17, seven day cytotoxicity, same run, read-out: MCF-7 ED50
[5] = Table 17, seven day cytotoxicity, same run, read-out: A-549 ED50
[6] = read-out: MCF-7 ED50, Table 17, seven day cytotoxicity, same run
[7] = read-out: MCF-7 LC50, Table 12, same run

Compound | RMB IC50 (rat liver mitochondria) | IC50 [3, 4] | LC50 ([2]; Table 17, same run) | further results
CCCCCC(O)CCCCC(O)C1CCC(C2CCC(C(O)CCCCCCCCCCCCC3=CC(C)OC3=O)O2)O1 (centres unmarked) [Compound 5, Asiminecin] |  |  |  | IC50 ([1]; read-out: A-549 LC50): 0.000329 ng/mL (≈ 0.000528 nM); LC50 ([2]; Table 5, brine shrimp larvae): 4.9 ng/mL (≈ 7.87 nM)
CCCCCCCCCCCCCC[C@@H](O)[C@H]1CC[C@H]([C@H](O)CC[C@H](O)CCCCC[C@@H](O)CC2=C[C@H](C)OC2=O)O1 [Compound 8, Goniothalamicin, reference compound] | 554.8 n moles/Lt/mg protein | 0.00573 ng/mL (≈ 0.0096 nM) | 37000 ng/mL (≈ 62000 nM) | IC50 [1, 5]: 0.00711 ng/mL (≈ 0.0119 nM)
CCCCCCCCCCCCCC[C@@H](O)[C@H](O)CC[C@H](O)[C@@H]1CC[C@@H](CCCCC[C@@H](O)CC2=C[C@H](C)OC2=O)O1 [Compound 10, Gigantetrocin A, reference compound] | 287.1 n moles/Lt/mg protein | 0.355 ng/mL (≈ 0.595 nM) | 600 ng/mL (≈ 1010 nM) | IC50 [1, 5]: 4.52e-05 ng/mL (≈ 7.57e-05 nM)
CCCCCCCCCC[C@@H](O)[C@H]1CC[C@H]([C@H]2CC[C@@H]([C@@H]3CC[C@@H](CCCCCCC[C@@H](O)CC4=C[C@H](C)OC4=O)O3)OCO2)O1 [Compound 21, 16,19-Formaldehyde acetal derivative of bullatanocin] | 11.3 n moles/Lt/mg protein | 222 ng/mL (≈ 341 nM) | 6.5 ng/mL (≈ 9.99 nM) | 
CCCCCC[C@H](O)CCC[C@H](O)[C@H]1CC[C@H]([C@H]2CC[C@H]([C@H](O)CCCCCCCCCCCCC3=C[C@H](C)OC3=O)O2)O1 [Compound 16, Squamocin, reference compound] | 21.5 n moles/Lt/mg protein |  | 20 ng/mL (≈ 32.1 nM) | IC50 [3, 6]: 30.3 ng/mL (≈ 48.6 nM)
CCCCCC[C@H](O)CCC[C@H](O)[C@H]1CC[C@H]([C@H]2CC[C@@H]([C@@H]3CC[C@@H](CCCCCCCCCC4=C[C@H](C)OC4=O)O3)OCO2)O1 [Compound 15, 16,19-mono-formaldehyde acetal derivative] |  | 1090 ng/mL (≈ 1670 nM) | 7 ng/mL (≈ 10.8 nM) | 
CCCCCCCCCCCCCC[C@@H](O)[C@H]1CC[C@@H]([C@@H]2CC[C@@H](CCCCC[C@@H](O)CC3=C[C@H](C)OC3=O)O2)OCO1 [Compound 11, 14,17-formaldehyde acetal derivative] |  |  |  | IC50 [3, 6]: 461 ng/mL (≈ 757 nM); IC50 ([1]; read-out: A-549 ED50): 0.798 ng/mL (≈ 1.31 nM)
CCCCCC[C@H]1CCC[C@@H](C2CCC(C3CCC(C(O)CCCCCCCCCCCCC4=CC(C)OC4=O)O3)O2)OCO1 (some centres unmarked) [Compound 17, 24,28-formaldehyde acetal derivative of squamocin] | 421.1 n moles/Lt/mg protein | 695 ng/mL (≈ 1090 nM) | 4.4 ng/mL (≈ 6.93 nM) | 
CCCCC(O)CCCCCC(O)C1CCC(C2CCC(C(O)CCCCCCCCCCCCC3=CC(C)OC3=O)O2)O1 (centres unmarked) [Compound 2] |  |  |  | mitochondrial inhibition (rat liver mitochondria; rat liver mitochondria, result in words, listed as bullanin (2)): high activity; also recorded: slightly higher potencies than bullatacin; LC50 ([2]; Table 5, brine shrimp larvae): 6 ng/mL (≈ 9.63 nM)
CCCCCCCCCC[C@H](O)[C@H]1CC[C@H]([C@H]2CC[C@@H]([C@@H]3CC[C@@H](CCCCCCC[C@@H](O)CC4=C[C@H](C)OC4=O)O3)OCO2)O1 [Compound 19, 16,19-Formaldehyde acetal derivative of bullatalicin] | 29.8 n moles/Lt/mg protein | 18.5 ng/mL (≈ 28.4 nM) | 49 ng/mL (≈ 75.3 nM) | 
C=C(C)[C@H]1Cc2c(ccc3c2O[C@@H]2COc4cc(OC)c(OC)cc4[C@@H]2C3=O)O1 [Rotenone, rotenone, reference compound] | 34.8 n moles/Lt/mg protein |  |  | LC50 [2]: 12.3 ng/mL (≈ 31.2 nM)
CCCCCCCCCCCC[C@@H](O)[C@H]1CC[C@H]([C@H](O)CC[C@H](O)[C@@H]2CC[C@@H](CCCCC[C@@H](O)CC3=C[C@H](C)OC3=O)O2)O1 [Compound 29, Gigantecin] |  |  |  | IC50 [3, 7]: 0.1 ng/mL (≈ 0.157 nM); IC50 ([1]; read-out: A-549 LC50): < 10 ng/mL; LC50 ([2]; Table 12): 34.4 ng/mL (≈ 53.8 nM)
CCCCCCCCCC[C@@H](O)[C@H]1CC[C@H]([C@H](O)CC[C@H](O)[C@@H]2CC[C@@H](CCCCCCC[C@@H](O)CC3=C[C@H](C)OC3=O)O2)O1 [Compound 20, Bullatanocin, reference compound] | 50.7 n moles/Lt/mg protein | 24.2 ng/mL (≈ 37.9 nM) | 430 ng/mL (≈ 673 nM) | 
CCCCCCCCCCC(O)C1CCC(C2CCC(C(O)CCCCC(O)CCCCCCCC3=CC(C)OC3=O)O2)O1 (centres unmarked) [Compound 3, Asimin] |  |  |  | BST LC50 ([2]; Table 5, brine shrimp larvae): 4.6 ng/mL
CCCCCCCCCCCC/C=C\CCC(O)C(O)CCC(O)C1CCC(CCCCCC(O)CC2=CC(C)OC2=O)O1 (centres unmarked) [Compound 28, Gigantetronenin, reference compound] |  |  |  | IC50 [3, 7]: 1.49e-05 ng/mL (≈ 2.39e-05 nM); LC50 ([2]; Table 12): 10400 ng/mL (≈ 16700 nM)
CCCCCCCCCCCCC(O)C1CCC(C(O)CCC(O)C2CCC(CCCCCC(O)CC3=CC(C)OC3=O)O2)O1 (stereo not drawn) [Compound 22, C-18/21-cis-gigantecin] |  |  |  | LC50 ([2]; Table 12): 249 ng/mL (≈ 390 nM)
CCCCCCC(O)CCCC(O)C1CCC(C2CCC(C(O)CCCCCCCCCCCCC3=CC(C)OC3=O)O2)O1 (centres unmarked) [Compound 4, Asiminacin] |  |  |  | LC50 ([2]; Table 5, brine shrimp larvae): 5.7 ng/mL (≈ 9.15 nM)
CCCCCCCCCC[C@H](O)[C@H]1CC[C@H]([C@H]2CC[C@@H]([C@@H]3CC[C@@H](CCCCCCC[C@@H]4CC(CC(C)=O)C(=O)O4)O3)OCO2)O1 (stereo partly drawn) [Compound 27, 16,19-Formaldehyde acetal derivatives of (2,4-cis and trans)-bullatalicinones] | 20.5 n moles/Lt/mg protein | 63.9 ng/mL (≈ 98.2 nM) | 38 ng/mL (≈ 58.4 nM) | 
CCCCCC[C@H](O)CCC[C@H](O)[C@H]1CC[C@H]([C@H](O)CC[C@H](O)[C@@H]2CC[C@@H](CCCCCCCCCC3=C[C@H](C)OC3=O)O2)O1 [Compound 13, Squamostatin A, reference compound] |  |  | 2800 ng/mL (≈ 4380 nM) | IC50 [3, 6]: 0.072 ng/mL (≈ 0.113 nM); IC50 ([1]; read-out: A-549 ED50): 0.268 ng/mL (≈ 0.419 nM)
